According to patent US20250313563A1, “GLYCOGEN SYNTHASE KINASE 3 INHIBITORS AND USES THEREOF” (The Broad Institute, Inc., priority 2022, published 2025):
Read-outs that look alike come from different tables or passages of the source.

Experiments:
[1] = biological target: GSK3b (GST-full length GSK3b) (Homo sapiens (Human), UniProt P49841); assay: GSK3b TR-FRET kinase assay; format: biochemical
In short: (§1)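 Compound preincubated 30 min, then 1 nM GST-full-length GSK3α or GSK3b run 100 min at ambient temperature with 200 nM biotinylated, S645-prephosphorylated glycogen synthase 631-650 peptide in Tris pH 7.5, MgCl2, DTT, BSA, 1% DMSO. ATP 4 μM (α) or 2 μM (β), or 1 mM. EDTA-quenched; Tb-anti-pSer641/streptavidin-d2 TR-FRET 665/615 ratio gave IC50.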

[2] = biological target: GSK3α (GST-full length GSK3α) (Homo sapiens (Human), UniProt P49840); assay: GSK3α TR-FRET kinase assay; format: biochemical
Sequence of GSK3α (GST-full length GSK3α) (P49840 whole entry): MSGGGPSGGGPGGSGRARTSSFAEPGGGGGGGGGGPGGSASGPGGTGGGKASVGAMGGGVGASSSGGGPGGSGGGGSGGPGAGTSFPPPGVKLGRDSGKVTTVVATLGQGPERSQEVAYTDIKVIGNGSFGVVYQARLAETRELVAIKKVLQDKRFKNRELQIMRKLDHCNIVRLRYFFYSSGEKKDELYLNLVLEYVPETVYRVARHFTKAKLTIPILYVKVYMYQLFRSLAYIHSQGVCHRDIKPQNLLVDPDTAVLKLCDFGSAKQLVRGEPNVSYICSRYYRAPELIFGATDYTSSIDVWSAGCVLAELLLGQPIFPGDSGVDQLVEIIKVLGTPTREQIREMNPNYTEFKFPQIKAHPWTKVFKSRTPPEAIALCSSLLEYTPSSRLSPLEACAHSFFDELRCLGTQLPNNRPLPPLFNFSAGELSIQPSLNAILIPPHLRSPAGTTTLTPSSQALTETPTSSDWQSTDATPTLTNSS
In short: as §1

[3] = 1 nM GSK3b, 2 μM ATP, 30 minute preincubation, Table 16, read-out: GSK3-B TR-FRET BIOCHEMICAL (TR-FRET)
[4] = 1 nM GSK3α, 4 μM ATP, 30 minute preincubation, Table 16, read-out: GSK3-A TR-FRET BIOCHEMICAL (TR-FRET)
[5] = 1 nM GSK3b, 2 μM ATP, 30 minute preincubation, Table 16, read-out: GSK3-B TR-FRET BIOCHEMICAL (TR-FRET), IC50
[6] = 1 nM GSK3α, 4 μM ATP, 30 minute preincubation, Table 16, read-out: GSK3-A TR-FRET BIOCHEMICAL (TR-FRET), IC50
[7] = 1 nM GSK3b, 2 μM ATP, 30 minute preincubation, geometric mean, read-out: GSK3-B TR-FRET BIOCHEMICAL (TR-FRET), GMean, IC50
[8] = 1 nM GSK3α, 4 μM ATP, 30 minute preincubation, geometric mean, read-out: GSK3-A TR-FRET BIOCHEMICAL (TR-FRET), GMean, IC50
[9] = 1 nM GSK3b, 2 μM ATP, 30 minute preincubation, read-out: GSK3-B TR-FRET BIOCHEMICAL (TR-FRET), IC50
[10] = 1 nM GSK3α, 4 μM ATP, 30 minute preincubation, read-out: GSK3-A TR-FRET BIOCHEMICAL (TR-FRET), IC50
[11] = read-out: GSK3-B (TR-FRET 1 mM ATP), GMean, IC50, 1 mM ATP, geometric mean
[12] = read-out: GSK3-A (TR-FRET 1 mM ATP), GMean, IC50, 1 mM ATP, geometric mean

Sequence of GSK3b (GST-full length GSK3b) (P49841 whole entry): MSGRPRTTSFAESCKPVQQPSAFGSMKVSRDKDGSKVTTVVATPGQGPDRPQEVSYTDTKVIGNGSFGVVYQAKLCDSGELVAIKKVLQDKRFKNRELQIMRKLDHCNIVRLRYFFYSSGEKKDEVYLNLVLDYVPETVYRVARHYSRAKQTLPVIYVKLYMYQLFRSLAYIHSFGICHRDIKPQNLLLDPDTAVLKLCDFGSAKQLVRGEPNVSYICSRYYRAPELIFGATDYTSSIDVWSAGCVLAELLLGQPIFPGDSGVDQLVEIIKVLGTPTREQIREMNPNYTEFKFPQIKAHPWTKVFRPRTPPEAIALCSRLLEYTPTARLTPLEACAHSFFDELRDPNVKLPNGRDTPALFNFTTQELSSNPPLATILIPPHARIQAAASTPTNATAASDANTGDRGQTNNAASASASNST

| Structure (SMILES) | IC50 [1, 3] [nM] | IC50 [2, 4] [nM] | IC50 [1, 7] [nM] | IC50 [2, 8] [nM] | also measured |
| --- | --- | --- | --- | --- | --- |
| CC1(C)CC(=O)C2=C(C1)Nc1n[nH]cc1C21CCN(S(=O)(=O)c2cnn(C(C)(C)C)c2)CC1 [Compound 945677] | 100 to 1000 | ≤ 100 | – | – | – |
| CC[C@]1(c2cccc(-c3cn(C)nc3C3CC3)c2)C2=C(CC(C)(C)NC2=O)Nc2n[nH]cc21 [Compound 951706] | – | – | – | – | IC50 [1, 5]: ≤ 100 nM; IC50 [2, 6]: ≤ 100 nM |
| CCC1(c2cccc(-c3ccncc3F)c2)C2=C(CC(C)(C)NC2=O)Nc2n[nH]c(C(F)F)c21 (centres unmarked) [Compound 951599] | – | – | – | – | IC50 [1, 5]: 100 to 1000 nM; IC50 [2, 6]: 100 to 1000 nM |
| C[C@H]1CC(=O)C2=C(C1)Nc1n[nH]cc1[C@@]2(C)c1ccccc1 [Compound 789334] | – | – | 1000 to 5000 | 100 to 1000 | – |
| CC[C@]1(c2cccc(-c3cnn4c3CC(C)(C)CC4)c2)C2=C(CC(C)(C)NC2=O)Nc2n[nH]cc21 [Compound 950564] | – | – | – | – | IC50 [1, 5]: 100 to 1000 nM; IC50 [2, 6]: ≤ 100 nM |
| CC1(C)CC(=O)C2=C(C1)Nc1n[nH]cc1[C@@]21CCOC2(CCOCC2)C1 [Compound 924306] | – | – | – | – | IC50 [1, 9]: 100 to 1000 nM; IC50 [2, 10]: 100 to 1000 nM |
| CC[C@@]1(c2ccccc2)C2=C(Nc3n[nH]cc31)[C@@H](C)C[C@H](C)C2=O [Compound 865202] | – | – | > 5000 | > 5000 | – |
| CCC1(c2cccc(N3CCOCC3)c2)C2=C(CC(C)(C)NC2=O)Nc2n[nH]c(C)c21 (centres unmarked) [Compound 947564] | – | – | 100 to 1000 | 100 to 1000 | – |
| COCCn1cc(S(=O)(=O)N2CCC3(CC2)C2=C(CC(C)(C)CC2=O)Nc2n[nH]cc23)cn1 [Compound 947477] | ≤ 100 | ≤ 100 | – | – | – |
| CC[C@]1(c2cccc(-c3cnn(-c4cccnc4)c3)c2)C2=C(CC(C)(C)NC2=O)Nc2n[nH]cc21 [Compound 952024] | – | – | – | – | IC50 [1, 5]: > 5000 nM; IC50 [2, 6]: 100 to 1000 nM |
| CC1(C)CC(=O)C2=C(C1)Nc1n[nH]cc1C21COC2(CN(C(=O)C3CCC(F)C3)C2)C1 (centres unmarked) [Compound 947486] | – | – | – | – | IC50 [1, 9]: ≤ 100 nM; IC50 [2, 10]: ≤ 100 nM |
| CC1(C)CC(=O)C2=C(C1)Nc1n[nH]cc1C21CN(CC(F)F)C1 [Compound 912073] | 100 to 1000 | 100 to 1000 | – | – | – |
| CCC1(c2cccc(S(=O)(=O)CC)c2)C2=C(CC(C)(C)CC2=O)Nc2n[nH]cc21 (centres unmarked) [Compound 889579] | – | – | – | – | IC50 [1, 5]: ≤ 100 nM; IC50 [2, 6]: ≤ 100 nM |
| CCC1(c2cccc(-c3ccnc(C)c3)c2)C2=C(CC(C)CC2=O)Nc2n[nH]cc21 (centres unmarked) [Compound 932637] | – | – | – | – | IC50 [1, 5]: > 5000 nM; IC50 [2, 6]: > 5000 nM |
| CC1(C)CC(=O)C2=C(C1)Nc1n[nH]cc1C21COC2(CN(C(=O)CC3CCC3)C2)C1 (centres unmarked) [Compound 947299] | – | – | – | – | IC50 [1, 9]: ≤ 100 nM; IC50 [2, 10]: ≤ 100 nM |
| CCC1(c2cccc(Br)c2)C2=C(CC(C)(C)CC2=O)Nc2n[nH]cc21 (centres unmarked) [Compound 789312] | – | – | 100 to 1000 | ≤ 100 | – |
| CC[C@]1(c2cccc(-c3cnn(-c4ccccc4)c3C(F)(F)F)c2)C2=C(CC(C)(C)NC2=O)Nc2n[nH]cc21 [Compound 951837] | – | – | – | – | IC50 [1, 5]: 100 to 1000 nM; IC50 [2, 6]: 100 to 1000 nM |
| CC[C@@]1(c2cccc(-c3cnn(C)c3C#N)c2)C2=C(CC(C)(C)NC2=O)Nc2n[nH]cc21 [Compound 948814] | – | – | > 5000 | > 5000 | – |
| CCC1(c2cccc(N(C)c3ccncc3)c2)C2=C(CC(C)(C)CC2=O)Nc2n[nH]cc21 (centres unmarked) [Compound 874261] | – | – | > 5000 | 100 to 1000 | – |
| CC1(C)CC(=O)C2=C(Nc3n[nH]cc3C23CCN(S(=O)(=O)c2ccccc2C(F)F)CC3)[C@@H]1F [Compound 951846] | 100 to 1000 | ≤ 100 | – | – | – |
| CCC1(c2cccc(-c3ccnn3CCC(C)C)c2)C2=C(CC(C)(C)CC2=O)Nc2n[nH]cc21 (centres unmarked) [Compound 946095] | ≤ 100 | ≤ 100 | – | – | – |
| CCC1(c2ccccc2)C2=C(CC(C)(C)CC2=O)Nc2n[nH]c(Br)c21 (centres unmarked) [Compound 789459] | – | – | ≤ 100 | ≤ 100 | – |

| Structure (SMILES) | IC50 [1, 3] [nM] | IC50 [2, 4] [nM] | IC50 [1, 7] [nM] | IC50 [2, 8] [nM] | also measured |
| --- | --- | --- | --- | --- | --- |
| CCC1(c2cccc(-c3ccnc(C)c3)c2)C2=C(CC(C)(C)NC2=O)Nc2n[nH]c(C(F)(F)F)c21 (centres unmarked) [Compound 947858] | – | – | ≤ 100 | ≤ 100 | – |
| CC1(C)CC(=O)C2=C(Nc3n[nH]cc3[C@]23CC[C@@H](C(F)(F)F)CC3)[C@@H]1F [Compound 918284] | ≤ 100 | ≤ 100 | – | – | – |
| CC[C@@]1(c2cccc(N3CCCC3)c2)C2=C(CC(C)(C)CC2=O)Nc2n[nH]cc21 [Compound 810509] | – | – | > 5000 | > 5000 | – |
| CC1(C)CC(=O)C2=C(C1)Nc1n[nH]cc1[C@]21COC2(CN(C(=O)C(F)(F)F)C2)C1 [Compound 948156] | – | – | – | – | IC50 [1, 9]: 100 to 1000 nM; IC50 [2, 10]: ≤ 100 nM |
| CCC1(c2cccc(-c3cnnn3C)c2)C2=C(CC(C)(C)CC2=O)Nc2n[nH]cc21 (centres unmarked) [Compound 947802] | ≤ 100 | ≤ 100 | – | – | – |
| CC1(C)CC(=O)C2=C(C1)Nc1n[nH]cc1C21COC2(CN(C(=O)C3CC3)C2)C1 (centres unmarked) [Compound 947297] | – | – | – | – | IC50 [1, 9]: ≤ 100 nM; IC50 [2, 10]: ≤ 100 nM |
| CC1(C)CC(=O)C2=C(C1)Nc1n[nH]cc1C21CCN(S(=O)(=O)c2ccccc2C(F)(F)F)CC1 [Compound 945667] | 100 to 1000 | ≤ 100 | – | – | – |
| CC[C@@]1(c2cccc(-c3ccnn3C3CC3(F)F)c2)C2=C(CC(C)(C)NC2=O)Nc2n[nH]cc21 (some centres unmarked) [Compound 949518] | – | – | – | – | IC50 [1, 5]: > 5000 nM; IC50 [2, 6]: 100 to 1000 nM |
| CCC1(c2cccc(-c3ccncc3C)c2)C2=C(CC3(CCC3)NC2=O)Nc2n[nH]cc21 (centres unmarked) [Compound 948523] | – | – | 100 to 1000 | ≤ 100 | – |
| CCC1(c2cccc(N3CC(C)C(C)C3)c2)C2=C(CC(C)(C)CC2=O)Nc2n[nH]cc21 (centres unmarked) [Compound 918326] | – | – | – | – | IC50 [1, 5]: 100 to 1000 nM; IC50 [2, 6]: 100 to 1000 nM |
| CCC1(c2cccc(-c3ccnc(C)c3OC)c2)C2=C(CC(C)(C)CC2=O)Nc2n[nH]cc21 (centres unmarked) [Compound 945458] | ≤ 100 | ≤ 100 | – | – | – |
| CCC1(c2cccc(C(F)(F)C(F)(F)F)c2)C2=C(CC(C)(C)CC2=O)Nc2n[nH]cc21 (centres unmarked) [Compound 948615] | ≤ 100 | ≤ 100 | – | – | – |
| C[C@@H]1C[C@H](C)C[C@@]2(C1)C1=C(CC(C)(C)CC1=O)Nc1n[nH]cc12 [Compound 884113] | 1000 to 5000 | 100 to 1000 | – | – | – |
| CC[C@@]1(c2cccc(-c3cnc(C)n3C)c2)C2=C(CC(C)(C)CC2=O)Nc2n[nH]cc21 [Compound 945613] | ≤ 100 | ≤ 100 | – | – | IC50 [1, 11]: 1000 to 5000 nM; IC50 [2, 12]: 100 to 1000 nM |
| CCC1(c2cccc(C(F)(F)F)c2)C2=C(CC(C)(C)N(C)C2=O)Nc2n[nH]cc21 (centres unmarked) [Compound 826790] | – | – | – | – | IC50 [1, 9]: ≤ 100 nM; IC50 [1, 11]: 1000 to 5000 nM; IC50 [2, 10]: ≤ 100 nM; IC50 [2, 12]: 100 to 1000 nM |
| CC[C@@]1(c2ccccc2)C2=C(CC(C)(C)[C@@H](F)C2=O)Nc2n[nH]cc21 [Compound 826768] | – | – | 100 to 1000 | ≤ 100 | – |
| CCC1(c2cccc(OC)c2)C2=C(CC(C)(C)CC2=O)Nc2n[nH]cc21 (centres unmarked) [Compound 801447] | – | – | 1000 to 5000 | 100 to 1000 | – |
| CC(=O)N1CC2(C1)C[C@@]1(CO2)C2=C(CC(C)(C)CC2=O)Nc2n[nH]cc21 [Compound 926872] | – | – | – | – | IC50 [1, 9]: 100 to 1000 nM; IC50 [2, 10]: 100 to 1000 nM |
| CC[C@@]1(c2cccc(-c3ccnc(C)c3)c2)C2=C(CC(C)(C)[C@H](F)C2=O)Nc2n[nH]cc21 [Compound 945486] | > 5000 | 1000 to 5000 | – | – | – |
| CC[C@@]1(c2ccccc2)C2=C(C[C@@]3(CCCOC3)CC2=O)Nc2n[nH]cc21 [Compound 816878] | – | – | 1000 to 5000 | 100 to 1000 | – |
| CCC1(c2cccc(-c3cc(C)nnc3C)c2)C2=C(CC(C)(C)NC2=O)Nc2n[nH]c(C(F)(F)F)c21 (centres unmarked) [Compound 949174] | – | – | ≤ 100 | ≤ 100 | IC50 [1, 11]: 100 to 1000 nM; IC50 [2, 12]: 100 to 1000 nM |
